# Columns and labels:
# Assay type in all cases: cell-based
# lung cancer cells = assay: Cytotoxicity test on lung cancer cells in biochip, static vs dynamic perfusion
# From the text: With reference to FIGS. 12A and 12B, cytotoxicity tests with 5-Fu cancer cell therapeutic drug are presented.
# breast cancer cells = assay: Cell viability of breast cancer cells in biochip; conditions: for live cancer cells (cell viability, FIG. 14): after culturing for 3 days, high concentrations
# From the text: FIG. 14 is a validation test of cell viability of breast cancer cells treating by couples of cancer therapeutic drugs. […] By such, the present invention can be used to determine which cancer treatment drugs are effective for the patient.
# FIG. 15 is an immunohistochemistry corresponded to the test result of Taxol drug in FIG. 14.
# GR10 lung cancer cells = assay: Cancer cell survival test of target drugs, GR10
# [1] = test system: Hela cervical cancer cells; assay: Biochip drug efficacy test on Hela cervical cancer cells
# From the text: (§1) The biochip 10 can be first served as a simulation model of a drug screening for cancer. This embodiment is an example of a drug screening for candidate drugs for cervical cancer taking from a target patient. It is worth mentioning that the biochip 10 provided by the present invention, the simulated vascular channel 12 in the preferred embodiment can be used for simulating an in-vivo environment of cervical cancer or breast cancer which these cancer cells are normally metabolized from the blood vessel in real human body. However, by switching the simulated vascular channel 12 into a gas or air flow channel (simulation of human trachea), it can be used as a simulation for lung cancer as another suitable applications for the present invention.
# (§2) In this embodiment, when producing the simulated vascular channel 12, the fluid containing endothelial cells will be fluxed for completely adhering, attaching and even starting to be cultured to the inner surface of the simulated vascular channel 12 at 37° C. for one day. Further, the peristaltic pump is connected to circulate as a biosystem. For a single simulated vascular channel 12, it is preferred to have a perfusion rate as 13 μL/min. […]
# With reference to FIGS. 8A to 8C, in this embodiment, three different cervical cancer cells are used to perform quantitative and qualitative tests of the efficacy of different cancer therapeutic drugs. […]
# [2] = test system: SiHa cervical cancer cells; assay: Biochip drug efficacy test on SiHa cervical cancer cells; conditions: compared with 5-Fu and Lipodox
# From the text: as §1, §2
# (§3) With reference to FIGS. 8A to 8C, in this embodiment, three different cervical cancer cells are used to perform quantitative and qualitative tests of the efficacy of different cancer therapeutic drugs.
# [3] = test system: CCC cervical cancer cells; assay: Biochip drug efficacy test on CCC cervical cancer cells; conditions: compared with 5-Fu and Lipodox
# From the text: as §1, §2, §3
structure (smiles),measurement,setting,value
O=c1[nH]cc(F)c(=O)[nH]1 [5-Fu],cytotoxicity (FIG. 12A),lung cancer cells; dynamic perfusion compared with static culture,cytotoxicity of dynamic perfusion is more remarkable
same,"dead cancer cells (immunohistochemistry, FIG. 12B)","lung cancer cells; high dose, dynamic culture of perfusion",dead cancer cells are increased
N.N.[Cl][Pt][Cl] [Cisplatin],"live cancer cells (cell viability, FIG. 14)",breast cancer cells,significantly reducing live cancer cells
C#Cc1cccc(Nc2ncnc3cc(OCCOC)c(OCCOC)cc23)c1 [Erlotinib],effect on cancer cell survival (FIG. 13B),GR10 lung cancer cells,drug resistance
COc1cc2ncnc(Nc3ccc(F)c(Cl)c3)c2cc1OCCCN1CCOCC1 [Gefitinib],effect on cancer cell survival (FIG. 13B),GR10 lung cancer cells,drug resistance
Nc1ccn([C@@H]2O[C@H](CO)[C@@H](O)C2(F)F)c(=O)n1 [Gemcitabine],"live cancer cells (cell viability, FIG. 14)",breast cancer cells,significantly reducing live cancer cells
Nc1nc2[nH]cc(CCc3ccc(C(=O)N[C@@H](CCC(=O)O)C(=O)O)cc3)c2c(=O)[nH]1 [Pemetrexed],reaction compared with the other drugs (FIG. 14),"breast cancer cells; Taxol, Cisplatin, Gemcitabine vs Pemetrexed",These three drugs show better reaction than Pemetrexed
CC(=O)O[C@H]1C(=O)[C@@]2(C)[C@H]([C@H](OC(=O)c3ccccc3)[C@]3(O)C[C@H](OC(=O)[C@H](O)[C@@H](NC(=O)c4ccccc4)c4ccccc4)C(C)=C1C3(C)C)[C@]1(OC(C)=O)CO[C@@H]1C[C@@H]2O [Taxol],"cancer cell killing effect (immunohistochemistry, apoptotic cells)",[1]; 7th day,significant cancer cell killing effect
same,"cancer cell poisoning effect (bar diagrams, FIG. 8A)",[1]; compared with 5-Fu and Lipodox,better cancer cell poisoning effect among other two drugs
same,"cancer cell poisoning effect (bar diagrams, FIG. 8B)",[2],better cancer cell poisoning effect among other two drugs
same,"cancer cell poisoning effect (bar diagrams, FIG. 8C)",[3],better cancer cell poisoning effect among other two drugs
same,"dead cancer cells (immunohistochemistry, FIG. 15)",breast cancer cells,more and more dead cancer cells are shown
same,"live cancer cells (cell viability, FIG. 14)",breast cancer cells,significantly reducing live cancer cells

# Reference: patent US20230011168A1, “Bio-Chips and Production Method Thereof” (China Medical University, priority 2021, published 2023)
